Reference: patent publication US20250282768A1 (Janssen Pharmaceutica NV, priority 2022, published 2025)

Each molecule was assayed on p-IKKa levels in L363 (NIK translocated multiple myeloma) cells (assay: Assay 2: Effect of compounds on p-IKKa levels in L363 (NIK translocated multiple myeloma) cells). Settings: Homo sapiens, L-363, 6 h, read-out: Assay 2 IC50 (nM), p-IKKa (Ser 176/180) in BAFF stimulated L363 cells with MG132, 6 h; average if tested more than once.
Format: cell-based
Summary of the method: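 L363 cells incubated overnight ± 250 ng/ml BAFF, then 6 h at 37 °C with compound (0.3% DMSO) ± 10 μM MG132. Lysates assayed for p-IKKa (Ser176/180) by AlphaLISA SureFire. IC50 from sigmoidal fit of % inhibition normalized to BAFF/MG132-stimulated and unstimulated controls.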

Row | Compound | IC50
1 | CN1CC[C@@](O)(c2cn(-c3cccc(-c4ccnc(Nc5ccn(CC(F)F)n5)n4)n3)nn2)C1=O [Example 214, (R)-3-(1-(6-(2-((1-(2,2-Difluoroethyl)-1H-pyrazol-3-yl)amino)pyrimidin-4-yl)pyridin-2-yl)-1H-1,2,3-triazol-4-yl)-3-hydroxy-1-methylpyrrolidin-2-one] | < 50 nM
2 | [2H]c1cc(-c2cccc(-c3cc([C@]4(O)CCN(C)C4=O)on3)n2)nc(Nc2ccn(CC)n2)n1 [Example 210, (R)-3-(3-(6-(2-((1-Ethyl-1H-pyrazol-3-yl)amino)pyrimidin-4-yl-6-d)pyridin-2-yl)isoxazol-5-yl)-3-hydroxy-1-methylpyrrolidin-2-one] | < 50 nM
3 | COc1cn(C)nc1Nc1nccc(-c2cccc(-c3cc([C@]4(O)CCN(C)C4=O)on3)c2)n1 [Example 16, (R)-3-Hydroxy-3-(3-(3-(2-((4-methoxy-1-methyl-1H-pyrazol-3-yl)amino)pyrimidin-4-yl)phenyl)isoxazol-5-yl)-1-methylpyrrolidin-2-one] | > 500 nM
4 | CN1CC[C@@](O)(c2cc(-c3cccc(-c4ccnc(NC5CCN(S(C)(=O)=O)CC5)n4)n3)no2)C1=O [Example 476, (R)-3-Hydroxy-1-methyl-3-(3-(6-(2-((1-(methylsulfonyl)piperidin-4-yl)amino)pyrimidin-4-yl)pyridin-2-yl)isoxazol-5-yl)pyrrolidin-2-one] | 50 to 500 nM
5 | CN1CC[C@@](O)(c2cc(-c3cccc(-c4ccnc(NC5CC(C(F)(F)F)C5)n4)n3)no2)C1=O (stereo partly drawn) [Example 445, (R)-3-Hydroxy-1-methyl-3-(3-(6-(2-((3-(trifluoromethyl)cyclobutyl)amino)pyrimidin-4-yl)pyridin-2-yl)isoxazol-5-yl)pyrrolidin-2-one] | > 500 nM
6 | CCn1ccc(Nc2nccc(-c3cccc(-c4cc([C@]5(O)CCN(C)C5=O)no4)n3)n2)n1 [Example 237, (R)-3-(5-(6-(2-((1-Ethyl-1H-pyrazol-3-yl)amino)pyrimidin-4-yl)pyridin-2-yl)isoxazol-3-yl)-3-hydroxy-1-methylpyrrolidin-2-one] | < 50 nM
7 | COC1CCC(Nc2nccc(-c3cccc(-c4cc([C@]5(O)CCN(C)C5=O)on4)n3)n2)CC1 (stereo partly drawn) [Example 469, (R)-3-Hydroxy-3-(3-(6-(2-((4-methoxycyclohexyl)amino)pyrimidin-4-yl)pyridin-2-yl)isoxazol-5-yl)-1-methylpyrrolidin-2-one] | > 500 nM
8 | C[C@H](Nc1nccc(-c2cccc(-c3cc([C@]4(O)CCN(C)C4=O)on3)n2)n1)C(=O)N1CC(C)(F)C1 [Example 178, (R)-3-(3-(6-(2-(((S)-1-(3-Fluoro-3-methylazetidin-1-yl)-1-oxopropan-2-yl)amino)pyrimidin-4-yl)pyridin-2-yl)isoxazol-5-yl)-3-hydroxy-1-methylpyrrolidin-2-one] | 50 to 500 nM
9 | C[C@H](Nc1nccc(-c2cccc(-c3cc([C@]4(O)CCN(C)C4=O)on3)n2)n1)C(=O)N1CCCCC1 [Example 180, (R)-3-Hydroxy-1-methyl-3-(3-(6-(2-(((S)-1-oxo-1-(piperidin-1-yl)propan-2-yl)amino)pyrimidin-4-yl)pyridin-2-yl)isoxazol-5-yl)pyrrolidin-2-one] | 50 to 500 nM
10 | C[C@@H](Nc1nccc(-c2cccc(-c3cc([C@]4(O)CCN(C)C4=O)on3)n2)n1)C(=O)N1CCC1 [Example 167, (R)-3-(3-(6-(2-(((R)-1-(Azetidin-1-yl)-1-oxopropan-2-yl)amino)pyrimidin-4-yl)pyridin-2-yl)isoxazol-5-yl)-3-hydroxy-1-methylpyrrolidin-2-one] | > 500 nM
11 | CN1CC[C@@](O)(c2cc(-c3cccc(-c4ccnc(Nc5cnn(C)c5Cl)n4)n3)on2)C1=O [Example 407, (R)-3-(5-(6-(2-((5-Chloro-1-methyl-1H-pyrazol-4-yl)amino)pyrimidin-4-yl)pyridin-2-yl)isoxazol-3-yl)-3-hydroxy-1-methylpyrrolidin-2-one] | < 50 nM
